Measured values as given in patent US7659292B2 (priority 2001, dated 2010).
Where two headings read alike, the source gives them in different places.

Tested on: Phytophthora infestans
Type: in vivo
Conditions: for Efficacy (obs.)/ %: percentage disease control relative to untreated plants; for Rating: potato plants, spray 200 l/ha, inoculated 24 hours after treatment, degree of infestation

SMILES | Efficacy (obs.)/ % (400 g/ha) [%] | Efficacy (obs.)/ % (600 g/ha) [%] | Rating (400 g/ha) | Rating (600 g/ha) | Efficacy (obs.)/ % (5 g/ha) [%] | Efficacy (obs.)/ % (25 g/ha) [%] | Rating (5 g/ha) | Rating (25 g/ha)
CCCOC(=O)NCCCN(C)C [Compound (II), propyl 3-(dimethylamino)propylcarbamate] | 0 | 18 | 8.3 | 6.8 |  |  |  | 
O=C(NCc1ncc(C(F)(F)F)cc1Cl)c1c(Cl)cccc1Cl [Compound (Ia), 2,6-dichloro-N-{[3-chloro-5-(trifluoromethyl)-2-pyridinyl]methyl}benzamide] |  |  |  |  | 48 | 60 | 4.3 | 3.3
